Structures are written as SMILES.

The term IC50 denotes the concentration that inhibits the measured activity by half.

T1 sequence (P35968 806-1356): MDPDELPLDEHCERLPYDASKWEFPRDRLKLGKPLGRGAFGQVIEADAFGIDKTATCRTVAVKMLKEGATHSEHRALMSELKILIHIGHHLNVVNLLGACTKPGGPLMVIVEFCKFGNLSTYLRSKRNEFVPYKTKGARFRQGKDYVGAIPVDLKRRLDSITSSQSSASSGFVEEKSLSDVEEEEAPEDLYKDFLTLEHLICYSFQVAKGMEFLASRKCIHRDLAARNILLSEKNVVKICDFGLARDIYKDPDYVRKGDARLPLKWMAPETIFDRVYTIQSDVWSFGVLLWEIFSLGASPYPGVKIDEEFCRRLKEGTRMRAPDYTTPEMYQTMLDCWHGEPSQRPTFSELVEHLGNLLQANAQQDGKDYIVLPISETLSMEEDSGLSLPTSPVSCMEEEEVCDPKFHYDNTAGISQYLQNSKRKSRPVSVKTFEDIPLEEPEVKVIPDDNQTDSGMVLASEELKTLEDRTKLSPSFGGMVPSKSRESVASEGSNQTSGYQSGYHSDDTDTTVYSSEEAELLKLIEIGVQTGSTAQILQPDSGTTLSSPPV

The assay concerns the target T1, VEGFR/KDR (Homo sapiens, UniProt P35968).
T1 construct: made in house; host or cells: Sf9 cells (Spodoptera frugiperda), baculovirus
The experiment in a line: VEGFR/KDR kinase inhibition, DELFIA assay. Format: biochemical. The conditions noted are these: ATP 0.6 uM (2x Km), enzyme 5 nM. An outline of the steps:
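DELFIA time-resolved fluorescence readout using Europium-tagged anti-phosphotyrosine antibody after EDTA stop. Kinase reaction on plate-bound poly(Glu4,Tyr) ran 10-30 min at 30° C with 5 nM enzyme and 0.6 uM ATP (2× Km), following 4 min on-ice pre-incubation with compound; IC50 over a concentration range.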
As for `O=C(Nc1ccc(Oc2ccnc3cc(-c4ccc(CN5CCN(CCF)CC5)cn4)sc23)c(F)c1)NC1CC1` [Compound 420, 1-Cyclopropyl-3-(3-fluoro-4-(2-(5-((4-(2-fluoroethyl)piperazin-1-yl)methyl)pyridin-2-yl)thieno[3,2-b]pyridin-7-yloxy)phenyl)urea], the IC50 was less than 50 nM.
`CN(CCF)C1CCN(Cc2ccc(-c3cc4nccc(Oc5ccc(NC(=O)NC6CC6)cc5F)c4s3)nc2)CC1` [Compound 421, 1-Cyclopropyl-3-(3-fluoro-4-(2-(5-((4-((2-fluoroethyl)(methyl)amino)piperidin-1-yl)methyl)pyridin-2-yl)thieno[3,2-b]pyridin-7-yloxy)phenyl)urea] gave an IC50 of less than 50 nM.
The value for `CCOC(=O)CN(C)C1CCN(Cc2ccc(-c3cc4nccc(Oc5ccc(NC(=O)NC6CC6)cc5F)c4s3)nc2)CC1` [Compound 422, Ethyl 2-((1-((6-(7-(4-(3-cyclopropylureido)-2-fluorophenoxy)thieno[3,2-b]pyridin-2-yl)pyridin-3-yl)methyl)piperidin-4-yl)(methyl)amino)acetate] was less than 50 nM.
In the case of `CN(CC(=O)O)C1CCN(Cc2ccc(-c3cc4nccc(Oc5ccc(NC(=O)NC6CC6)cc5F)c4s3)nc2)CC1` [Compound 423, 2-((1-((6-(7-(4-(3-Cyclopropylureido)-2-fluorophenoxy)thieno[3,2-b]pyridin-2-yl)pyridin-3-yl)methyl)piperidin-4-yl)(methyl)amino)acetic acid], the IC50 was less than 50 nM.
`CN(CCC(=O)O)C1CCN(Cc2ccc(-c3cc4nccc(Oc5ccc(NC(=O)NC6CC6)cc5F)c4s3)nc2)CC1` [Compound 424, 3-((1-((6-(7-(4-(3-Cyclopropylureido)-2-fluorophenoxy)thieno[3,2-b]pyridin-2-yl)pyridin-3-yl)methyl)piperidin-4-yl)(methyl)amino)propanoic acid] had an IC50 of less than 50 nM.
Then `O=C(O)CNC(=O)NC1CCN(Cc2ccc(-c3cc4nccc(Oc5ccc(NC(=O)NC6CC6)cc5F)c4s3)nc2)CC1` [Compound 426, 2-(3-(1-((6-(7-(4-(3-Cyclopropylureido)-2-fluorophenoxy)thieno[3,2-b]pyridin-2-yl)pyridin-3-yl)methyl)piperidin-4-yl)ureido)acetic acid], with less than 50 nM; and `CN(C(=O)NCC(=O)O)C1CCN(Cc2ccc(-c3cc4nccc(Oc5ccc(NC(=O)NC6CC6)cc5F)c4s3)nc2)CC1` [Compound 427], with less than 50 nM; and `O=C(O)CNC(=O)NC1CN(Cc2ccc(-c3cc4nccc(Oc5ccc(NC(=O)NC6CC6)cc5F)c4s3)nc2)C1` [Compound 428], with less than 50 nM.
Regarding `O=C(O)CCNC(=O)NC1CCN(Cc2ccc(-c3cc4nccc(Oc5ccc(NC(=O)NC6CC6)cc5F)c4s3)nc2)CC1` [Compound 429], the IC50 is not below 250 nM.
Consider `CCNC(=O)N1CC(N(CC(=O)O)Cc2ccc(-c3cc4nccc(Oc5ccc(NC(=O)NC6CC6)cc5F)c4s3)nc2)C1` [Compound 434, 2-(((6-(7-(4-(3-Cyclopropylureido)-2-fluorophenoxy)thieno[3,2-b]pyridin-2-yl)pyridin-3-yl)methyl)(1-(ethylcarbamoyl)azetidin-3-yl)-amino)acetic acid], for which the IC50 was less than 50 nM.
The value for `CN1CCN(CCNC(=O)c2cc3nccc(Oc4ccc(NC(=O)NC5CC5)cc4F)c3s2)CC1` [Compound 440] was not below 250 nM.
The value for `CN(C)[C@H]1CCN(C(=O)c2cc3nccc(Oc4ccc(NC(=O)NC5CC5)cc4F)c3s2)C1` [Compound 441] was less than 50 nM; that for `CN(C)C(=O)c1cc2nccc(Oc3ccc(NC(=O)NC4CC4)cc3F)c2s1` [Compound 442] was less than 50 nM.
For `CC(C)(C)C(=O)O[C@@H]1CCN(C(=O)c2cc3nccc(Oc4ccc(NC(=O)NC5CC5)cc4F)c3s2)C1` [Compound 443], the half-inhibitory concentration (IC50) is not below 250 nM.
In turn, `CNC(=O)c1cc2nccc(Oc3ccc(NC(=O)NC4CC4)cc3F)c2s1` [Compound 444] registered an IC50 of less than 50 nM.
The value for `O=C(Nc1ccc(Oc2ccnc3cc(C(=O)N4CCCC4)sc23)c(F)c1)NC1CC1` [Compound 445] was less than 50 nM; that for `O=C(Nc1ccc(Oc2ccnc3cc(C(=O)N4CCC4)sc23)c(F)c1)NC1CC1` [Compound 446] was less than 50 nM.
Then `O=C(Nc1ccc(Oc2ccnc3cc(C(=O)N4CCCCC4)sc23)c(F)c1)NC1CC1` [Compound 447], with less than 50 nM; and `CC(C)(C)C(=O)O[C@H]1CCN(C(=O)c2cc3nccc(Oc4ccc(NC(=O)NC5CC5)cc4F)c3s2)C1` [Compound 448], with 100 to 250 nM.
Then `COC(=O)[C@@H]1CCCN1C(=O)c1cc2nccc(Oc3ccc(NC(=O)NC4CC4)cc3F)c2s1` [Compound 449], with less than 50 nM; and `O=C(Nc1ccc(Oc2ccnc3cc(C(=O)N4CCOCC4)sc23)c(F)c1)NC1CC1` [Compound 450], with less than 50 nM; and `CC(C)(C)C(=O)O[C@@H]1CCCN(C(=O)c2cc3nccc(Oc4ccc(NC(=O)NC5CC5)cc4F)c3s2)C1` [Compound 451], with not below 250 nM.
Compound `CC(=O)N[C@H]1CCN(C(=O)c2cc3nccc(Oc4ccc(NC(=O)NC5CC5)cc4F)c3s2)C1` [Compound 452] had a concentration for half-maximal inhibition (IC50) of less than 50 nM.
Then `CC(=O)N[C@@H]1CCN(C(=O)c2cc3nccc(Oc4ccc(NC(=O)NC5CC5)cc4F)c3s2)C1` [Compound 453], with less than 50 nM.
For the compound `CC(C)(C)C(=O)OC1CN(C(=O)c2cc3nccc(Oc4ccc(NC(=O)NC5CC5)cc4F)c3s2)C1` [Compound 454], the IC50 was less than 50 nM.
Regarding `CC(C)(C)C(=O)OC1CCN(C(=O)c2cc3nccc(Oc4ccc(NC(=O)NC5CC5)cc4F)c3s2)CC1` [Compound 455], the IC50 lay in the range of 100 to 250 nM.
`CCN(C(=O)OC(C)(C)C)[C@H]1CCN(C(=O)c2cc3nccc(Oc4ccc(NC(=O)NC5CC5)cc4F)c3s2)C1` [Compound 456] displayed an IC50 of less than 50 nM.
`CCOC(=O)C1CCN(C(=O)c2cc3nccc(Oc4ccc(NC(=O)NC5CC5)cc4F)c3s2)CC1` [Compound 457]: the IC50 is 50 to 100 nM.
Then `CCOC(=O)C1CCCN(C(=O)c2cc3nccc(Oc4ccc(NC(=O)NC5CC5)cc4F)c3s2)C1` (centres unmarked) [Compound 458], with 50 to 100 nM; and `O=C(Nc1ccc(Oc2ccnc3cc(C(=O)N4CC[C@@H](O)C4)sc23)c(F)c1)NC1CC1` [Compound 460, (R)-1-cyclopropyl-3-(3-fluoro-4-(2-(3-hydroxypyrrolidine-1-carbonyl)thieno[3,2-b]pyridin-7-yloxy)phenyl)urea], with less than 50 nM; and `O=C(Nc1ccc(Oc2ccnc3cc(C(=O)N4CC[C@H](O)C4)sc23)c(F)c1)NC1CC1` [Compound 461, (S)-1-cyclopropyl-3-(3-fluoro-4-(2-(3-hydroxypyrrolidine-1-carbonyl)thieno[3,2-b]pyridin-7-yloxy)phenyl)urea], with less than 50 nM.
Consider `O=C(Nc1ccc(Oc2ccnc3cc(C(=O)N4CC(O)C4)sc23)c(F)c1)NC1CC1` [Compound 462], for which the IC50 was less than 50 nM.
The value for `O=C(Nc1ccc(Oc2ccnc3cc(C(=O)N4CCC[C@@H](O)C4)sc23)c(F)c1)NC1CC1` [Compound 463, (R)-1-cyclopropyl-3-(3-fluoro-4-(2-(3-hydroxypiperidine-1-carbonyl)thieno-[3,2-b]pyridine-7-yloxy)phenyl)urea] was 100 to 250 nM; that for `O=C(Nc1ccc(Oc2ccnc3cc(C(=O)N4CCC(C(=O)O)CC4)sc23)c(F)c1)NC1CC1` [Compound 465, 1-(7-(4-(3-cyclopropylureido)-2-fluorophenoxy)thieno[3,2-b]pyridine-2-carbonyl)piperidine-4-carboxylic acid] was 50 to 100 nM; that for `O=C(Nc1ccc(Oc2ccnc3cc(C(=O)N4CCCC(C(=O)O)C4)sc23)c(F)c1)NC1CC1` (centres unmarked) [Compound 466, 1-(7-(4-(3-cyclopropylureido)-2-fluorophenoxy)thieno[3,2-b]pyridine-2-carbonyl)piperidine-3-carboxylic acid] was less than 50 nM.
With `CC(=O)O[C@@H]1CCN(C(=O)c2cc3nccc(Oc4ccc(NC(=O)NC5CC5)cc4F)c3s2)C1` [Compound 467, (R)-1-(7-(4-(3-cyclopropylureido)-2-fluorophenoxy)thieno[3,2-b]pyridine-2-carbonyl)pyrrolidin-3-yl acetate], the IC50 was less than 50 nM.
The value for `CC(=O)O[C@H]1CCN(C(=O)c2cc3nccc(Oc4ccc(NC(=O)NC5CC5)cc4F)c3s2)C1` [Compound 468, (S)-1-(7-(4-(3-cyclopropylureido)-2-fluorophenoxy)thieno[3,2-b]pyridine-2-carbonyl)pyrrolidin-3-yl acetate] was less than 50 nM; that for `CC(=O)OC1CN(C(=O)c2cc3nccc(Oc4ccc(NC(=O)NC5CC5)cc4F)c3s2)C1` [Compound 469, 1-(7-(4-(3-cyclopropylureido)-2-fluorophenoxy)thieno[3,2-b]pyridine-2-carbonyl)azetidin-3-yl acetate] was less than 50 nM; that for `CN(C)CCNC(=O)C1CCN(C(=O)c2cc3nccc(Oc4ccc(NC(=O)NC5CC5)cc4F)c3s2)CC1` [Compound 471, 1-(7-(4-(3-cyclopropylureido)-2-fluorophenoxy)thieno[3,2-b]pyridine-2-carbonyl)-N-(2-(dimethylamino)ethyl)piperidine-4-carboxamide] was 50 to 100 nM.
`CN1CCN(C(=O)C2CCN(C(=O)c3cc4nccc(Oc5ccc(NC(=O)NC6CC6)cc5F)c4s3)CC2)CC1` [Compound 472, 1-cyclopropyl-3-(3-fluoro-4-(2-(4-(4-methylpiperazine-l-carbonyl)piperidine-1-carbonyl)thieno[3,2-b]pyridin-7-yloxy)phenyl)urea]: the half-maximal inhibitory concentration (IC50) was 50 to 100 nM.
`CN1CCN(C(=O)C2CCCN(C(=O)c3cc4nccc(Oc5ccc(NC(=O)NC6CC6)cc5F)c4s3)C2)CC1` (centres unmarked) [Compound 473, 1-cyclopropyl-3-(3-fluoro-4-(2-(3-(4-methylpiperazine-1-carbonyl)piperidine-1-carbonyl)thieno[3,2-b]pyridin-7-yloxy)phenyl)urea] showed an IC50 of less than 50 nM.

(Values after US8906852B2 (MethylGene Inc., priority 2010, dated 2014).)
